Measurements as given in patent US7138491B2, “Carboline-3-carboxylic acid modified related sequences of Ala-Arg-Pro-Ala-Lys, their synthesis and use as thromobolytic agent” (Guangzhou Bai Yun Shan Pharmaceutical Co., Ltd., priority 2003, dated 2006).
Marks after values point to notes of the source that are not given here. Ends that are not written are not given here.

Legend:
[1] = system: rabbit euglobulin fraction; assay: In vitro euglobulin clot lysis time (ECLT); assay type: biochemical; conditions: dosage differs per compound (1.3-6.7 μg; UK 5 IU); 96 well microtiter plate; n = 6; NS control 200.01 ± 15.26
Description: The rabbit euglobulin fraction was prepared according to the literature^[6]. Plasma diluted […] in distilled water was precipitated at pH 5.7 with acetic acid (0.25%). After 30 min at 4° C. the suspension was centrifuged at 2000 g for 15 min and the precipitate was resuspended to the initial plasma volume with 50 mM barbital buffer (pH 7.8, contained 1.66 mM of CaCl2, 0.68 mM of MgCl2 and 93.96 mM of NaCl). Euglobulin clot lysis time (ECLT) of the tested pseudopeptide was measured using a 96 well microtiter plate^[7] and the data are listed in Table 2.

thrombus = assay: In vivo thrombolytic activity, thrombus on steel helix in extracorporeal circulation; conditions: male Wistar rats; injected; dose differs per compound (3.1-8.2 mg/kg; UK 20000 IU); blood circulated 90 min; n = 10; NS control 12.31 ± 2.57
Description: Male Wistar rats weighing 200–300 g (purchased from Animal Center of Peking University) were anesthetized with pentobarbital sodium (80.0 mg/kg, ip). The right carotid artery and left vein jugular of the animals were separated. To the glass tube filled with artery blood (1.0 ml) from the right carotid artery of the animal a stainless steel filament helix (15 circles; L, 15 mm; D, 1.0 mm) was put immediately. After 15 minutes the helix with thrombus was carefully taken out and weighted exactly, which was put into the middle polyethylene tube. The polyethylene tube was full with heparin sodium (50 IU/ml of NS) and one end was inserted into the left jugular vein. Heparin sodium was injected via the other end of the polyethylene tube as the anticoagulant, following which the tested pseudopeptide was injected. The blood was circulated through the polyethylene tube for 90 min, after which the helix was taken out and weighted accurately.

fibrin plate = assay: In vitro fibrinolytic lysis on fibrin plate (fibrinogen-agarose); assay type: biochemical, rabbit; conditions: dosage per well differs per compound (0.8-2.2 μg; UK 5 IU); n = 6; NS control 21.01 ± 9.26
Description: The plates were prepared by mixing equal volumes of 0.3% rabbit fibrinogen and 0.95% agarose solutions, both dissolved in 50 mM of barbital buffer (pH 7.8, contained 1.66 mM of CaCl2, 0.68 mM of MgCl2 and 93.96 mM of NaCl)^[6]. The fibrinogen-agarose mixture was coagulated with […] thrombin (100 IU: ml) in the plastic dishes (its diameter is 90 mm and the depth of the fibrin plate is 1 mm). After 30 min at 4° C. an adequate number of wells, 5 mm in diameter, were perforated. To determine fibrinolytic activity […] aliquots of the tested pseudopeptides were added to each well, the plate was incubated, and areas of lysis were quantified as described for the regular fibrin plates.

## 3S-1,2,3,4-tetrahydro-β-carboline-3-carboxyl-Pro-Ala-Lys-OH [compound 20]
[1]
  Euglobulin clot lysis time, x ± SD: 209.31 ± 31.57 min
thrombus
  The reduction of thrombolytic mass, x ± SD: 13.31 ± 0.0257 mg
Fibrin plate
  Effect of the pseudopeptides on fibrin plate, areas of lysis, x ± SD: 19.41 ± 11.71 mm^2

## 3S-(2-Ala-Arg-Pro)-1,2,3,4-tetrahydro-β-carboline-3-carboxylic acid [compound 28]
[1]
  Euglobulin clot lysis time, x ± SD: 213.23 ± 31.58 min
thrombus
  The reduction of thrombolytic mass, x ± SD: 13.23 ± 2.58 mg
Fibrin plate
  Effect of the pseudopeptides on fibrin plate, areas of lysis, x ± SD: 21.21 ± 11.11 mm^2

## 3S-(2-Ala-Arg-Pro-Ala)-1,2,3,4-tetrahydro-β-carboline-3-carboxylic acid (ARPA; not fully specified (C-terminus)) [compound 27]
[1]
  Euglobulin clot lysis time, x ± SD: 203.89 ± 29.67 min
thrombus
  The reduction of thrombolytic mass, x ± SD: 13.89 ± 2.67 mg
Fibrin plate
  Effect of the pseudopeptides on fibrin plate, areas of lysis, x ± SD: 23.32 ± 9.99 mm^2

## 3S-(2-Ala-Arg-Pro-Ala-Lys)-1,2,3,4-tetrahydro-β-carboline-3-carboxylic acid (ARPAK; not fully specified (C-terminus)) [compound 21]
[1]
  Euglobulin clot lysis time, x ± SD: 119.70 ± 23.71^a min
thrombus
  The reduction of thrombolytic mass, x ± SD: 19.7 ± 3.71^2) mg
Fibrin plate
  Effect of the pseudopeptides on fibrin plate, areas of lysis, x ± SD: 119.70 ± 10.71^a mm^2

## 3S-(2-Arg-Arg-Pro-Ala-Lys)-1,2,3,4-tetrahydro-β-carboline-3-carboxylic acid (RRPAK; not fully specified (C-terminus)) [compound 16]
[1]
  Euglobulin clot lysis time, x ± SD: 204.11 ± 32.87 min
thrombus
  The reduction of thrombolytic mass, x ± SD: 14.11 ± 2.87 mg
Fibrin plate
  Effect of the pseudopeptides on fibrin plate, areas of lysis, x ± SD: 24.19 ± 10.08 mm^2

## 3S-(2-Arg-Pro-Ala-Lys)-1,2,3,4-tetrahydro-β-carboline-3-carboxylic acid (RPAK; not fully specified (C-terminus)) [compound 29]
[1]
  Euglobulin clot lysis time, x ± SD: 104.40 ± 27.51^a min
thrombus
  The reduction of thrombolytic mass, x ± SD: 24.40 ± 2.51^a,d mg
Fibrin plate
  Effect of the pseudopeptides on fibrin plate, areas of lysis, x ± SD: 126.55 ± 9.98^a mm^2

## 3S-(2-Asn-Arg-Pro-Ala-Lys)-1,2,3,4-tetrahydro-β-carboline-3-carboxylic acid (NRPAK; not fully specified (C-terminus)) [compound 25]
[1]
  Euglobulin clot lysis time, x ± SD: 217.27 ± 30.57 min
thrombus
  The reduction of thrombolytic mass, x ± SD: 17.27 ± 3.57^2) mg
Fibrin plate
  Effect of the pseudopeptides on fibrin plate, areas of lysis, x ± SD: 20.84 ± 10.77 mm^2

## 3S-(2-Gln-Arg-Pro-Ala-Lys)-1,2,3,4-tetrahydro-β-carboline-3-carboxylic acid (QRPAK; not fully specified (C-terminus)) [compound 24]
[1]
  Euglobulin clot lysis time, x ± SD: 96.88 ± 29.21^1a min
thrombus
  The reduction of thrombolytic mass, x ± SD: 22.88 ± 9.21^1) mg
Fibrin plate
  Effect of the pseudopeptides on fibrin plate, areas of lysis, x ± SD: 133.89 ± 9.99^a mm^2

## 3S-(2-Gly-Arg-Pro-Ala-Lys)-1,2,3,4-tetrahydro-β-carboline-3-carboxylic acid (GRPAK; not fully specified (C-terminus)) [compound 22]
[1]
  Euglobulin clot lysis time, x ± SD: 98.02 ± 25.21^a min
thrombus
  The reduction of thrombolytic mass, x ± SD: 24.02 ± 5.21^1) mg
Fibrin plate
  Effect of the pseudopeptides on fibrin plate, areas of lysis, x ± SD: 125.90 ± 11.15^a mm^2

## 3S-(2-Lys-Arg-Pro-Ala-Lys)-1,2,3,4-tetrahydro-β-carboline-3-carboxylic acid (KRPAK; not fully specified (C-terminus)) [compound 23]
[1]
  Euglobulin clot lysis time, x ± SD: 213.98 ± 29.45 min
thrombus
  The reduction of thrombolytic mass, x ± SD: 13.98 ± 2.45 mg
Fibrin plate
  Effect of the pseudopeptides on fibrin plate, areas of lysis, x ± SD: 19.87 ± 9.58 mm^2

## 3S-(2-Pro-Ala-Lys)-1,2,3,4-tetrahydro-β-carboline-3-carboxylic acid [compound 30]
[1]
  Euglobulin clot lysis time, x ± SD: 96.56 ± 30.42^a min
thrombus
  The reduction of thrombolytic mass, x ± SD: 26.56 ± 2.42^b mg
Fibrin plate
  Effect of the pseudopeptides on fibrin plate, areas of lysis, x ± SD: 139.39 ± 9.52^a mm^2

## H-ARPAK-OH [compound 1, H-Ala-Arg-Pro-Ala-Lys-OH]
[1]
  Euglobulin clot lysis time, x ± SD: 90.12 ± 17.64^a,b min
thrombus
  The reduction of thrombolytic mass, x ± SD: 18.84 ± 3.18^1)2) mg
Fibrin plate
  Effect of the pseudopeptides on fibrin plate, areas of lysis, x ± SD: 119.12 ± 12.44^a mm^2

## H-Ala-Arg-Pro-Ala-OH (H-ARPA-OH) [compound 10]
[1]
  Euglobulin clot lysis time, x ± SD: 214.01 ± 28.26 min
thrombus
  The reduction of thrombolytic mass, x ± SD: 14.01 ± 2.26 mg
Fibrin plate
  Effect of the pseudopeptides on fibrin plate, areas of lysis, x ± SD: 31.01 ± 9.26 mm^2

## H-Ala-Arg-Pro-OH [compound 9]
[1]
  Euglobulin clot lysis time, x ± SD: 203.81 ± 29.50 min
thrombus
  The reduction of thrombolytic mass, x ± SD: 13.81 ± 2.50 mg
Fibrin plate
  Effect of the pseudopeptides on fibrin plate, areas of lysis, x ± SD: 23.16 ± 9.05 mm^2

## H-Arg-Arg-Pro-Ala-Lys-OH (H-RRPAK-OH) [compound 6]
[1]
  Euglobulin clot lysis time, x ± SD: 213.31 ± 27.75 min
thrombus
  The reduction of thrombolytic mass, x ± SD: 13.31 ± 2.75 mg
Fibrin plate
  Effect of the pseudopeptides on fibrin plate, areas of lysis, x ± SD: 33.77 ± 10.05 mm^2

## H-Arg-Pro-Ala-Lys-OH (H-RPAK-OH) [compound 7]
[1]
  Euglobulin clot lysis time, x ± SD: 85.22 ± 20.40^a,b min
thrombus
  The reduction of thrombolytic mass, x ± SD: 18.22 ± 2.40^a mg
Fibrin plate
  Effect of the pseudopeptides on fibrin plate, areas of lysis, x ± SD: 125.33 ± 10.10^a mm^2

## H-Asn-Arg-Pro-Ala-Lys-OH (H-NRPAK-OH) [compound 5]
[1]
  Euglobulin clot lysis time, x ± SD: 212.88 ± 29.66 min
thrombus
  The reduction of thrombolytic mass, x ± SD: 12.88 ± 2.66 mg
Fibrin plate
  Effect of the pseudopeptides on fibrin plate, areas of lysis, x ± SD: 22.66 ± 9.46 mm^2

## H-Gln-Arg-Pro-Ala-Lys-OH (H-QRPAK-OH) [compound 4]
[1]
  Euglobulin clot lysis time, x ± SD: 86.28 ± 20.46^a,b min
thrombus
  The reduction of thrombolytic mass, x ± SD: 21.28 ± 3.46^1)2) mg
Fibrin plate
  Effect of the pseudopeptides on fibrin plate, areas of lysis, x ± SD: 136.28 ± 10.62^a mm^2

## H-Gly-Arg-Pro-Ala-Lys-OH (H-GRPAK-OH) [compound 2]
[1]
  Euglobulin clot lysis time, x ± SD: 89.90 ± 20.05^a,b min
thrombus
  The reduction of thrombolytic mass, x ± SD: 25.90 ± 2.05^1) mg
Fibrin plate
  Effect of the pseudopeptides on fibrin plate, areas of lysis, x ± SD: 125.90 ± 11.15^a mm^2

## H-Lys-Arg-Pro-Ala-Lys-OH (H-KRPAK-OH) [compound 3]
[1]
  Euglobulin clot lysis time, x ± SD: 221.28 ± 23.46 min
thrombus
  The reduction of thrombolytic mass, x ± SD: 21.28 ± 3.46^1)2) mg
Fibrin plate
  Effect of the pseudopeptides on fibrin plate, areas of lysis, x ± SD: 38.99 ± 9.06 mm^2

## H-Pro-Ala-Lys-OH [compound 8]
[1]
  Euglobulin clot lysis time, x ± SD: 80.68 ± 20.34^a,b min
thrombus
  The reduction of thrombolytic mass, x ± SD: 23.68 ± 2.34^a mg
Fibrin plate
  Effect of the pseudopeptides on fibrin plate, areas of lysis, x ± SD: 138.06 ± 9.39^a mm^2
